Test [1] addresses T1, Cbl-b (Homo sapiens, UniProt Q13191). The test can be described thus: Cbl-b inhibition assay (Cbl-b activity assay, FRET, Biological Example 1; 100 mM NaCl, 60 nM Src kinase). The following applies: upper bound stated in text lists; read-out: IC50 values in the Cbl-b inhibition assay of Biological Example 1. The format is biochemical. The method, boiled down: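 Here, the E2 UbcH5B, irreversibly linked to Bodipy-fluorescein ubiquitin, binds Cbl-b once Src kinase phosphorylates it; Cbl-b carries an N-terminal biotinylated Avi-tag captured by streptavidin-terbium. An absent FRET signal indicates inhibition.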

The target of test [2] is T1, Cbl-b. The test can be described thus: Cbl-b activity assay (Cbl-b inhibition assay), TR-FRET of Cbl-b interaction with UbcH5B-Ub. The format is biochemical. Particulars: assay buffer with 100 mM NaCl, 60 nM Src kinase; read-out: Cbl-b activity IC50. The method, boiled down:
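Compound-treated Cbl-b was incubated 1.5 h with Src kinase (60 nM final; 30 nM for asterisked values, which also used 50 mM instead of 100 mM NaCl), 1 mM ATP and 5 mM MgCl2. Binding to fluorescent Ub-loaded UbcH5B (C85K mutant) was then read by TR-FRET after 1 h more.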
A general note: In TR-FRET formats the signal depends on donor and acceptor labels being close together.

Test [3] relates to T-cell. Briefly: IL-2 secretion from T-cells co-stimulated with anti-CD3 and anti-CD28 antibody (Biological Example 2). The format is cell-based, human. The following applies: Homo sapiens, T-cell, fold change over baseline, primary human total T-cells, read-out: IL-2 secretion Anti-CD3/Anti-CD28 stimulation; for fold induction at 0.3 µM: 0.3 μM Cbl-b inhibitor; for fold induction at 1 µM: 1 μM Cbl-b inhibitor; for fold induction at 4 µM: 4 μM Cbl-b inhibitor. Summed up: (§1)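 Values are fold-change over baseline: readings (IL-2 release, CD25 staining) from inhibitor-treated T-cells divided against untreated cells […]. No detailed procedure stated.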

The subject of test [4] is T-cell. The test can be described thus: CD25 cell surface staining on T-cells stimulated with anti-CD3 antibody alone (Biological Example 2). The following applies: T-cell, fold change over baseline, primary human total T-cells, read-out: CD25 staining Anti-CD3 stimulation; for fold induction at 1 µM: 1 μM Cbl-b inhibitor; for fold induction at 8 µM: 8 μM Cbl-b inhibitor. The format is cell-based, human.

The subject of test [5] is T-cell. Briefly: CD25 cell surface staining on T-cells co-stimulated with anti-CD3 and anti-CD28 antibody (Biological Example 2). The format is cell-based, human. Particulars: Homo sapiens, T-cell, fold change over baseline, primary human total T-cells, read-out: CD25 staining Anti-CD3/Anti-CD28 stimulation; for fold induction at 0.3 µM: 0.3 μM Cbl-b inhibitor; for fold induction at 1 µM: 1 μM Cbl-b inhibitor; for fold induction at 4 µM: 4 μM Cbl-b inhibitor. The method, boiled down: as §1

In test [6] the test system is T-cell. Briefly: IL-2 secretion from T-cells stimulated with anti-CD3 antibody alone (Biological Example 2). The format is cell-based, human. The following applies: T-cell, fold change over baseline, primary human total T-cells, read-out: IL-2 secretion Anti-CD3 stimulation; for fold induction at 1 µM: 1 μM Cbl-b inhibitor; for fold induction at 8 µM: 8 μM Cbl-b inhibitor.

Each structure is given as a SMILES string. Some results are limits rather than exact numbers.

T1 sequence (Q13191 36-427): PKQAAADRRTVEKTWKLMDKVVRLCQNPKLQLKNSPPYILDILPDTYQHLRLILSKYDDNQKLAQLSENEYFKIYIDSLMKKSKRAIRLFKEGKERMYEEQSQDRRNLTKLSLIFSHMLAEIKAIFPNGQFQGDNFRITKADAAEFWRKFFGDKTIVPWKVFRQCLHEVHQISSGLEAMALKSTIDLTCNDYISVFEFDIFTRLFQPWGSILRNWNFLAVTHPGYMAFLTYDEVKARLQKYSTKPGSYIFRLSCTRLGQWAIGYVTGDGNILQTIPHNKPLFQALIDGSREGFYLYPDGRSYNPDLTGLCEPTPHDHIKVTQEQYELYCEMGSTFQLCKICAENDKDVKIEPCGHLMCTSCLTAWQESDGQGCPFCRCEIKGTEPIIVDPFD

In general, IC50 refers to the point on the concentration scale where inhibition reaches its midpoint. Turning to `Cn1cnnc1CC1(c2cccc(NC(=O)c3cc(C4CC4)nc(C(F)(F)F)n3)c2)COC1` [Compound 341, 6-cyclopropyl-N-(3-(3-((4-methyl-4H-1,2,4-triazol-3-yl)methyl)oxetan-3-yl)phenyl)-2-(trifluoromethyl)pyrimidine-4-carboxamide], the figures for the IC50 on Cbl-b [1] and at Cbl-b [2] were at most 100 nM and below 100 nM, respectively. Moreover, the fold induction at 0.3 µM lay within 2.51 to 5 in the test on T-cell [3] and 1.01 to 1.3 in the test on T-cell [5]. Also, the fold induction at 1 µM in the test with T-cell [3] is above 7.5; in the test with T-cell [4] it was 0.801 to 1; with T-cell [5], 1.31 to 1.5; with T-cell [6], 0.151 to 0.2. Moreover, the results for the fold induction at 4 µM in the test with T-cell [3] and in the test with T-cell [5] were above 7.5 and 1.51 to 1.75, respectively. Also, the fold induction at 8 µM was above 1 in the test on T-cell [4] and above 0.201 with T-cell [6].

Turning to `COc1cc(C(=O)Nc2cccc(C3(Cc4nncn4C)COC3)c2)nc(C2CC2)n1` [Compound 342, 2-cyclopropyl-6-methoxy-N-(3-(3-((4-methyl-4H-1,2,4-triazol-3-yl)methyl)oxetan-3-yl)phenyl)pyrimidine-4-carboxamide], the IC50 at Cbl-b [1] was at most 100 nM; at Cbl-b [2] it was below 100 nM. Moreover, the fold induction at 0.3 µM in the test with T-cell [3] fell in the range of 5 to 7.5; with T-cell [5], 1.01 to 1.3. Besides, the fold induction at 1 µM in the test on T-cell [3] is above 7.5; with T-cell [4], above 1; with T-cell [5], 1.31 to 1.5; in the test on T-cell [6], 0.151 to 0.2.

On to `Cn1cnnc1CC1(c2cccc(NC(=O)c3[nH]nc4c3OCCC4)c2)COC1` [Compound 343, N-(3-(3-((4-Methyl-4H-1,2,4-triazol-3-yl)methyl)oxetan-3-yl)phenyl)-2,5,6,7-tetrahydropyrano[3,2-c]pyrazole-3-carboxamide], for which the IC50 at Cbl-b [1] is at most 100 nM; on Cbl-b [2], below 100 nM. Moreover, the fold induction at 0.3 µM in the test with T-cell [3] was in the range of 1.01 to 2.5; with T-cell [5] it was 1.01 to 1.3. Also, the fold induction at 1 µM lay in the range of 1.01 to 2.5 in the test with T-cell [3], 0.601 to 0.8 in the test with T-cell [4], 1.01 to 1.3 in the test with T-cell [5] and 0.051 to 0.1 with T-cell [6].

As to `Cn1cnnc1C(F)(F)[C@](C)(F)c1cccc(NC(=O)c2nc3c(C(F)(F)F)cccc3[nH]2)c1` [Compound 345, (R)-N-(3-(1,1,2-trifluoro-1-(4-methyl-4H-1,2,4-triazol-3-yl)propan-2-yl)phenyl)-4-(trifluoromethyl)-1H-benzo[d]imidazole-2-carboxamide], the IC50 at Cbl-b [1] was at most 300 nM; at Cbl-b [2] it was 100 to 300 nM. Further, the values for the fold induction at 0.3 µM in the test with T-cell [3] and with T-cell [5] were 1.01 to 2.5 and 1.01 to 1.3, respectively. Besides, the fold induction at 1 µM in the test with T-cell [3] was 1.01 to 2.5; in the test on T-cell [4], 0.601 to 0.8; in the test on T-cell [5], 1.01 to 1.3; in the test on T-cell [6], 0.051 to 0.1. For the same compound, the fold induction at 4 µM in the test with T-cell [3] is 2.51 to 5; with T-cell [5], 1.01 to 1.3. The fold induction at 8 µM in the test with T-cell [4] was in the range of 0.601 to 0.8; in the test with T-cell [6], 0.151 to 0.2.

Turning to `Cc1cc(C(=O)Nc2cccc(C3(C(F)(F)c4nncn4C)CC3)c2)nc(C2CC2)n1` [Compound 346, 2-cyclopropyl-N-(3-{1-[difluoro(4-methyl-4H-1,2,4-triazol-3-yl)methyl]cyclopropyl}phenyl)-6-methylpyrimidine-4-carboxamide], the figures for the half-maximal inhibitory concentration (IC50) at Cbl-b [1] and at Cbl-b [2] were at most 100 nM and below 100 nM, respectively. The fold induction at 0.3 µM in the test with T-cell [3] lay within 1.01 to 2.5; with T-cell [5], 1.01 to 1.3. Moreover, the fold induction at 1 µM with T-cell [3] was in the range of 2.51 to 5; in the test on T-cell [4], 0.601 to 0.8; in the test with T-cell [5], 1.01 to 1.3; with T-cell [6] it was 0.101 to 0.15.

With `Cn1cnnc1CC1(c2cccc(NC(=O)c3cc(C4CC4)nc(C4CC4)n3)c2)COC1` [Compound 347, 2,6-dicyclopropyl-N-(3-(3-((4-methyl-4H-1,2,4-triazol-3-yl)methyl)oxetan-3-yl)phenyl)pyrimidine-4-carboxamide], the IC50 was at most 100 nM on Cbl-b [1] and below 100 nM on Cbl-b [2]. Besides, the fold induction at 0.3 µM in the test on T-cell [3] lay within 2.51 to 5; with T-cell [5], 1.01 to 1.3. The fold induction at 1 µM was above 7.5 in the test with T-cell [3], above 1 in the test with T-cell [4], 1.01 to 1.3 in the test with T-cell [5] and 0.151 to 0.2 in the test on T-cell [6]. The fold induction at 4 µM was above 7.5 in the test with T-cell [3] and 1.31 to 1.5 in the test with T-cell [5]. Also, the fold induction at 8 µM in the test with T-cell [4] is above 1; in the test on T-cell [6], above 0.201.

For `CN1CCN(c2cc(C(=O)Nc3cccc(C4(Cc5nncn5C)COC4)c3)nc(C3CC3)n2)CC1` [Compound 348, 2-Cyclopropyl-N-(3-(3-((4-methyl-4H-1,2,4-triazol-3-yl)methyl)oxetan-3-yl)phenyl)-6-(4-methylpiperazin-1-yl)pyrimidine-4-carboxamide], the figures for the IC50 on Cbl-b [1] and on Cbl-b [2] were at most 100 nM and below 100 nM, respectively. In addition, the fold induction at 0.3 µM was in the range of 2.51 to 5 with T-cell [3] and 1.31 to 1.5 in the test on T-cell [5]. In addition, the fold induction at 1 µM was above 7.5 in the test with T-cell [3], 0.801 to 1 with T-cell [4], 1.31 to 1.5 in the test on T-cell [5] and above 0.201 with T-cell [6].

For the compound `C[C@H](Cc1nncn1C)c1cc(NC2CCC2)nc(N2Cc3c(cccc3C(F)(F)F)C2=O)c1` [Compound 351, 2-[6-(cyclobutylamino)-4-[(2R)-1-(4-methyl-4H-1,2,4-triazol-3-yl)propan-2-yl]pyridin-2-yl]-4-(trifluoromethyl)-2,3-dihydro-1H-isoindol-1-one], the values for the IC50 on Cbl-b [1] and at Cbl-b [2] were at most 300 nM and 100 to 300 nM, respectively. Also, the fold induction at 0.3 µM in the test with T-cell [3] lay within 1.01 to 2.5; in the test on T-cell [5], 1.01 to 1.3. For the same compound, the fold induction at 1 µM was 1.01 to 2.5 with T-cell [3], 0.601 to 0.8 with T-cell [4], 1.01 to 1.3 with T-cell [5] and below 0.05 in the test on T-cell [6]. Moreover, the figures for the fold induction at 4 µM in the test on T-cell [3] and in the test on T-cell [5] were 1.01 to 2.5 and 1.01 to 1.3, respectively. For the same compound, the fold induction at 8 µM in the test on T-cell [4] was above 1; in the test with T-cell [6], 0.151 to 0.2.

Turning to `C[C@H](Cc1nncn1C)c1cc(OC2COC2)nc(N2Cc3c(cccc3C(F)(F)F)C2=O)c1` [Compound 354, 2-{4-[(2R)-1-(4-methyl-4H-1,2,4-triazol-3-yl)propan-2-yl]-6-(oxetan-3-yloxy)pyridin-2-yl}-4-(trifluoromethyl)-2,3-dihydro-1H-isoindol-1-one], the IC50 is at most 300 nM on Cbl-b [1] and 100 to 300 nM at Cbl-b [2]. Also, the fold induction at 0.3 µM in the test with T-cell [3] was 1.01 to 2.5; with T-cell [5] it was 1.01 to 1.3. Further, the fold induction at 1 µM in the test on T-cell [3] lay within 1.01 to 2.5; in the test on T-cell [4] it was 0.601 to 0.8; with T-cell [5], 1.01 to 1.3; in the test on T-cell [6], 0.101 to 0.15. The fold induction at 4 µM in the test on T-cell [3] was in the range of 5 to 7.5; in the test with T-cell [5], 1.31 to 1.5. Moreover, the fold induction at 8 µM with T-cell [4] was above 1; in the test on T-cell [6], above 0.201.

On to `C[C@H](Cc1nncn1C)c1cc(OCC(F)F)nc(N2Cc3c(cccc3C(F)(F)F)C2=O)c1` [Compound 356, (R)-2-(6-(2,2-difluoroethoxy)-4-(1-(4-methyl-4H-1,2,4-triazol-3-yl)propan-2-yl)pyridin-2-yl)-4-(trifluoromethyl)isoindolin-1-one], for which the IC50 is at most 100 nM at Cbl-b [1] and below 100 nM on Cbl-b [2]. In addition, the fold induction at 0.3 µM is 2.51 to 5 in the test on T-cell [3] and 1.01 to 1.3 in the test with T-cell [5]. Moreover, the fold induction at 1 µM with T-cell [3] is 2.51 to 5; in the test on T-cell [4], 0.801 to 1; in the test with T-cell [5], 1.01 to 1.3; with T-cell [6], 0.151 to 0.2. The fold induction at 4 µM was above 7.5 in the test with T-cell [3] and 1.31 to 1.5 in the test with T-cell [5]. Besides, the fold induction at 8 µM with T-cell [4] is above 1; with T-cell [6], above 0.201.

(Values after US20220324835A1 (Nurix Therapeutics, Inc., priority 2018, published 2022).)
